Results reported in PubChem BioAssay (NCI).
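Step 1: Grow cells in 96-well plates. Step 2: Expose to compound for 48 hours at 5 concentrations. Step 3: Interpolate endpoints linearly; if unreached, use highest concentration. Definition used: TGI = concentration required for complete inhibition of growth.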

How the values were obtained:
Experiment in all cases: DTP human tumour cell line panel, 48 h
RPMI-8226 leukemia = system: RPMI-8226 leukemia
IGROV1 ovarian = system: IGROV1 ovarian
SNB-75 CNS = system: SNB-75 CNS
SN12C renal = system: SN12C renal
UACC-62 melanoma = system: UACC-62 melanoma
KM12 colon = system: KM12 colon
LOX IMVI melanoma = system: LOX IMVI melanoma
A549 NSCLC = system: A549 NSCLC
TK-10 renal = system: TK-10 renal
MALME-3M melanoma = system: MALME-3M melanoma
HT29 colon = system: HT29 colon
SW-620 colon = system: SW-620 colon
CCRF-CEM leukemia = system: CCRF-CEM leukemia
HL-60(TB) leukemia = system: HL-60(TB) leukemia
HCT-15 colon = system: HCT-15 colon
SK-MEL-5 melanoma = system: SK-MEL-5 melanoma
OVCAR-4 ovarian = system: OVCAR-4 ovarian
OVCAR-3 ovarian = system: OVCAR-3 ovarian
K-562 leukemia = system: K-562 leukemia

For C/C(=N\NC(=S)N1CCN(C)CC1)c1nc2ncccc2[nH]1, which TGI (RPMI-8226 leukemia) is on record?
Its TGI is > 100 µM.

What about the TGI (IGROV1 ovarian) of the same molecule?
Its TGI is > 100 µM.

And the TGI (SNB-75 CNS)?
The TGI was > 100 µM.

What about the TGI (SN12C renal) of the same molecule?
Its TGI is > 100 µM.

What about the TGI (UACC-62 melanoma) of the same molecule?
The TGI was > 100 µM.

And the TGI (KM12 colon)?
The TGI was > 100 µM.

What about the TGI (LOX IMVI melanoma) of the same molecule?
The TGI was > 100 µM.

What about the TGI (A549 NSCLC) of the same molecule?
The TGI was > 100 µM.

What about the TGI (TK-10 renal) of the same molecule?
Its TGI is > 100 µM.

And the TGI (MALME-3M melanoma)?
Its TGI is > 100 µM.

And the TGI (HT29 colon)?
Its TGI is > 100 µM.

What about the TGI (SW-620 colon) of the same molecule?
Its TGI is > 100 µM.

And the TGI (CCRF-CEM leukemia)?
Its TGI is > 100 µM.

What about the TGI (HL-60(TB) leukemia) of the same molecule?
The TGI was > 100 µM.

And the TGI (HCT-15 colon)?
The TGI was > 100 µM.

What about the TGI (SK-MEL-5 melanoma) of the same molecule?
The TGI was > 100 µM.

What about the TGI (OVCAR-4 ovarian) of the same molecule?
The TGI was > 100 µM.

What about the TGI (OVCAR-3 ovarian) of the same molecule?
Its TGI is > 100 µM.

What about the TGI (K-562 leukemia) of the same molecule?
The TGI was > 100 µM.

Which results are given for CN(Cc1cccc2ccccc12)Cc1cccc2ccccc12?
TGI (RPMI-8226 leukemia): 50.1 µM; TGI (IGROV1 ovarian): > 100 µM; TGI (SNB-75 CNS): > 100 µM; TGI (SN12C renal): > 100 µM; TGI (UACC-62 melanoma): > 100 µM; TGI (KM12 colon): > 100 µM; TGI (LOX IMVI melanoma): > 100 µM; TGI (A549 NSCLC): > 100 µM; TGI (TK-10 renal): > 100 µM; TGI (MALME-3M melanoma): 63.4 µM; TGI (HT29 colon): > 100 µM; TGI (SW-620 colon): 57.9 µM; TGI (CCRF-CEM leukemia): 34 µM; TGI (HL-60(TB) leukemia): 33.4 µM; TGI (HCT-15 colon): > 100 µM; TGI (SK-MEL-5 melanoma): 33.6 µM; TGI (OVCAR-4 ovarian): > 100 µM; TGI (OVCAR-3 ovarian): > 100 µM; TGI (K-562 leukemia): > 100 µM

O=C(O)NCC1CCCCC1 (tested in a mixture with another compound) was tested. Which TGI (RPMI-8226 leukemia) did it give?
Its TGI is 9.73 µM.

And the TGI (IGROV1 ovarian)?
Its TGI is 23.3 µM.

And the TGI (SNB-75 CNS)?
The TGI was 36.6 µM.

And the TGI (SN12C renal)?
Its TGI is 28.1 µM.

What about the TGI (UACC-62 melanoma) of the same molecule?
Its TGI is 34.2 µM.

And the TGI (KM12 colon)?
The TGI was 29.7 µM.

What about the TGI (LOX IMVI melanoma) of the same molecule?
Its TGI is 28.6 µM.

And the TGI (A549 NSCLC)?
Its TGI is > 100 µM.

And the TGI (TK-10 renal)?
The TGI was > 100 µM.

What about the TGI (MALME-3M melanoma) of the same molecule?
Its TGI is 7.15 µM.

What about the TGI (HT29 colon) of the same molecule?
Its TGI is 66.6 µM.

And the TGI (SW-620 colon)?
Its TGI is 52.4 µM.

What about the TGI (CCRF-CEM leukemia) of the same molecule?
The TGI was > 100 µM.

What about the TGI (HL-60(TB) leukemia) of the same molecule?
The TGI was 38.5 µM.

And the TGI (HCT-15 colon)?
The TGI was 63.6 µM.

What about the TGI (SK-MEL-5 melanoma) of the same molecule?
Its TGI is 28.7 µM.

And the TGI (OVCAR-4 ovarian)?
The TGI was > 100 µM.

And the TGI (OVCAR-3 ovarian)?
The TGI was 19.8 µM.

What about the TGI (K-562 leukemia) of the same molecule?
Its TGI is 35.9 µM.
